Test results from ChEMBL document CHEMBL2429832, “N-substituted 8-aminopentacyclo[5.4.0.0(2,6).0(3,10).0(5,9)]undecanes as σ receptor ligands with potential neuroprotective effects” (Bioorg Med Chem, 2013).
pKi: −log10 of the molar value.

Assays:
[1] = target: T1, Muscarinic acetylcholine receptor M3 (Homo sapiens, UniProt P20309); assay: Inhibition of muscarinic M3 receptor (unknown origin) by PDSP assay
Target sequence in this assay (P20309 whole entry): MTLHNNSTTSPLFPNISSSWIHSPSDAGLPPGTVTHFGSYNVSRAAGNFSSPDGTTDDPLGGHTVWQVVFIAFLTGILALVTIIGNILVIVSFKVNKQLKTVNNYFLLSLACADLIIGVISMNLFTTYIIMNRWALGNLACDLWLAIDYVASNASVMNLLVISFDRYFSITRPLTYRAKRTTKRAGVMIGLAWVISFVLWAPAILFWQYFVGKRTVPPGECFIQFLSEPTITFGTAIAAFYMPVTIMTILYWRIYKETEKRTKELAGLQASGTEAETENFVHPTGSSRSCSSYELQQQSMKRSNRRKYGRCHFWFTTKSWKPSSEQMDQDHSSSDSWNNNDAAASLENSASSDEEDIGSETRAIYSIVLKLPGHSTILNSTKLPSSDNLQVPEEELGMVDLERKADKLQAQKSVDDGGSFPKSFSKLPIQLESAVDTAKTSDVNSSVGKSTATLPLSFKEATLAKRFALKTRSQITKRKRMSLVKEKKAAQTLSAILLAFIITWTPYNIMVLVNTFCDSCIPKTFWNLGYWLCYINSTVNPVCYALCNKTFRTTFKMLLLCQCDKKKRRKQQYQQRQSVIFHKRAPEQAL

[2] = target: Sodium-dependent dopamine transporter (Homo sapiens, UniProt Q01959); assay: Displacement of [3H]-WIN-35,428 from human DAT expressed in HEK cell membranes; parameters: species or system HEK293
Sodium-dependent dopamine transporter, sequence (Q01959 whole entry): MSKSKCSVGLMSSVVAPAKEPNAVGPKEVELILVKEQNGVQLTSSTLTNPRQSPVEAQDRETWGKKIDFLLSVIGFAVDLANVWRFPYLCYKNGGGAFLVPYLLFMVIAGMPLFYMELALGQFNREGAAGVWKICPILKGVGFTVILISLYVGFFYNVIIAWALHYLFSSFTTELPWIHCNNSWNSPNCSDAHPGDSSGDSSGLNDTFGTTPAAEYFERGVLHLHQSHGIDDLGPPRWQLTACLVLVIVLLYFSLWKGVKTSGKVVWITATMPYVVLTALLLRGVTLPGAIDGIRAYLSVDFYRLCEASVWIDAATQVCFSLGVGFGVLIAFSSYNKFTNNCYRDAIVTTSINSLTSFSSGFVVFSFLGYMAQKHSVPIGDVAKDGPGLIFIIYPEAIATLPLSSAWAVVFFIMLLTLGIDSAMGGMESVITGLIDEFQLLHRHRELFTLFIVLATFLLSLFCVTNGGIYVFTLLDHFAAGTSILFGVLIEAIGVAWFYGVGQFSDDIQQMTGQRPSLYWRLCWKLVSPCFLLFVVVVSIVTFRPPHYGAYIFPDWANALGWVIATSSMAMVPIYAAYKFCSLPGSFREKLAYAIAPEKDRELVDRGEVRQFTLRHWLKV

[3] = target: T2, Muscarinic acetylcholine receptor M1 (Homo sapiens) (UniProt P11229); assay: Inhibition of muscarinic M1 receptor (unknown origin) at 10 uM by PDSP assay relative to control
T2 sequence (whole entry): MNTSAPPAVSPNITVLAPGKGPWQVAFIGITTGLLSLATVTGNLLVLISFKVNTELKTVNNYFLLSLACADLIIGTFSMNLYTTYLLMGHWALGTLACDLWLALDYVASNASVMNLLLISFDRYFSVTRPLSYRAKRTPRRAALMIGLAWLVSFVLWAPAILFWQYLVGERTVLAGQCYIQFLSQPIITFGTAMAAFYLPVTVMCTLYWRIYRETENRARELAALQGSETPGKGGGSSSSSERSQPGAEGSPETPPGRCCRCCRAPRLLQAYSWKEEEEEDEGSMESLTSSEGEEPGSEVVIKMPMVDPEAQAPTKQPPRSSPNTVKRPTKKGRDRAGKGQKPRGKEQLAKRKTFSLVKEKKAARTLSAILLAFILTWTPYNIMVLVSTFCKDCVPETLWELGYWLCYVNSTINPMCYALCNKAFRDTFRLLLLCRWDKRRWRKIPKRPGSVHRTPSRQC

[4] = target: T3, Alpha-2C adrenergic receptor (Homo sapiens) (UniProt P18825); assay: Inhibition of adrenergic alpha2C receptor (unknown origin) at 10 uM by PDSP assay relative to control
T3 sequence (whole entry): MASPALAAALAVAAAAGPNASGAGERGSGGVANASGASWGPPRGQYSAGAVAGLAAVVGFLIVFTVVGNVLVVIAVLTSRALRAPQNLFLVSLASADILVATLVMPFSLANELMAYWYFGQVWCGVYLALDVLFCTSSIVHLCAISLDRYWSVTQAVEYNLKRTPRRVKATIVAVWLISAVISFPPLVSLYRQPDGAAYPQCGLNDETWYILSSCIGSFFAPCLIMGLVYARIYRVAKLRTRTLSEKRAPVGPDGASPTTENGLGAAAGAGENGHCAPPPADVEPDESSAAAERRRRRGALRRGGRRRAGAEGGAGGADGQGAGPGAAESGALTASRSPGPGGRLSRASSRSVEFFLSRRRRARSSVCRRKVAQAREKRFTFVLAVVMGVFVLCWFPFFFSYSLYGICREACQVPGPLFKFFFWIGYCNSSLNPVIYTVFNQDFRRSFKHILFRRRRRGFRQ

D(1B) dopamine receptor [5] = target: T4, D(1B) dopamine receptor (Homo sapiens, UniProt P21918); assay: Inhibition of dopamine D5 receptor (unknown origin) by PDSP assay
T4 sequence (P21918 whole entry): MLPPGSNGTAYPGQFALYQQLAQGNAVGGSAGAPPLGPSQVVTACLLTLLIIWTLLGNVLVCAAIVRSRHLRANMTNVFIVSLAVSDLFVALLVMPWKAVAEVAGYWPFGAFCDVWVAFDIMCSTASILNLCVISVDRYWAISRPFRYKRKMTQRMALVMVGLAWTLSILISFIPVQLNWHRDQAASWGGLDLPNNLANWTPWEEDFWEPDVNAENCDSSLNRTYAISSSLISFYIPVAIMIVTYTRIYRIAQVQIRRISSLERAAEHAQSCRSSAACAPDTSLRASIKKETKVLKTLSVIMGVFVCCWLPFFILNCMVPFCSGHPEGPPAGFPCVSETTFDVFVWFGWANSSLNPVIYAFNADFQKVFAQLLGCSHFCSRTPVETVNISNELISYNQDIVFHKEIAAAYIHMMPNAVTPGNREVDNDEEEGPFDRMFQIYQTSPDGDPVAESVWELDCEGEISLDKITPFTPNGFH

[6] = target: T1, Muscarinic acetylcholine receptor M3; assay: Inhibition of muscarinic M3 receptor (unknown origin) at 10 uM by PDSP assay relative to control
Target sequence in this assay (P20309 whole entry, looked up): as the sequence (P20309 whole entry) above

D(1B) dopamine receptor [7] = target: T4, D(1B) dopamine receptor; assay: Inhibition of dopamine D5 receptor (unknown origin) at 10 uM by PDSP assay relative to control
Histamine H1 receptor = Histamine H1 receptor (Homo sapiens, UniProt P35367); assay: Inhibition of histamine H1 receptor (unknown origin) by PDSP assay
Histamine H1 receptor, sequence (P35367 whole entry): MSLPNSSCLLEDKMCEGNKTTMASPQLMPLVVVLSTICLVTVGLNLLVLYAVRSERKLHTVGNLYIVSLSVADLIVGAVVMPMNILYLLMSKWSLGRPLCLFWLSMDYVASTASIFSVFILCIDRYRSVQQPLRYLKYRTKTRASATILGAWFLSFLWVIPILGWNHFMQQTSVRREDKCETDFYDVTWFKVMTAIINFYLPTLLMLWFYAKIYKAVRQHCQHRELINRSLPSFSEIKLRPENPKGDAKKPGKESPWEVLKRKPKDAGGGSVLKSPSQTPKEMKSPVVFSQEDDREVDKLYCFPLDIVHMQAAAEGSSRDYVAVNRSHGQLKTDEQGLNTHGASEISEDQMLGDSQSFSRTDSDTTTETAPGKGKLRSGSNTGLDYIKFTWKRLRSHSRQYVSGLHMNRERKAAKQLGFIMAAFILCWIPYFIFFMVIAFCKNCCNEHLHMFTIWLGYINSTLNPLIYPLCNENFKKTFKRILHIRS

[8] = target: T5, Muscarinic acetylcholine receptor M2 (Homo sapiens) (UniProt P08172); assay: Inhibition of muscarinic M2 receptor (unknown origin) at 10 uM by PDSP assay relative to control
T5 sequence (whole entry): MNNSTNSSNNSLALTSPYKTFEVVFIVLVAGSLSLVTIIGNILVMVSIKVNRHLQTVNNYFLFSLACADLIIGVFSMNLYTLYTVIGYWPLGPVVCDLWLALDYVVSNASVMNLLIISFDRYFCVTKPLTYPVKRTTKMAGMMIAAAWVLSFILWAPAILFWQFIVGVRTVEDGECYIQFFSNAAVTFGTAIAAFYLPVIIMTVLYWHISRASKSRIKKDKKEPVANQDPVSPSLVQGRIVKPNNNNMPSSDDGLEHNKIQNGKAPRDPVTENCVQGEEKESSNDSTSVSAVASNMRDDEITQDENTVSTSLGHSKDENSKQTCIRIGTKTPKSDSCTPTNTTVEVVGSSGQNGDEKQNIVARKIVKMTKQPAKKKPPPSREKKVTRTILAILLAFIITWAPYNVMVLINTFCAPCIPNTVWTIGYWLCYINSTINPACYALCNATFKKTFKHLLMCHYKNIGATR

D(3) dopamine receptor = D(3) dopamine receptor (Homo sapiens, UniProt P35462); assay: Inhibition of dopamine D3 receptor (unknown origin) by PDSP assay
D(3) dopamine receptor, sequence (P35462 whole entry): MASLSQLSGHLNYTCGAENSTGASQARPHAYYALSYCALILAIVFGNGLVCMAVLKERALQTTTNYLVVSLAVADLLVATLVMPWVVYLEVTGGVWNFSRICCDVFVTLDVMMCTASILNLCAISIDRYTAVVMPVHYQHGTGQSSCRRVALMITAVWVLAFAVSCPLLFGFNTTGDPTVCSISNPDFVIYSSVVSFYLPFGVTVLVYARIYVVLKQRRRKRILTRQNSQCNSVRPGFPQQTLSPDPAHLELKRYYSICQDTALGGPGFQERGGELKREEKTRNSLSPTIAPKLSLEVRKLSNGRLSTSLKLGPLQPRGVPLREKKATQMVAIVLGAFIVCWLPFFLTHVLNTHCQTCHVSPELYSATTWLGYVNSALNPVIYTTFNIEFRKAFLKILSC

[9] = target: T6, Alpha-2B adrenergic receptor (Homo sapiens, UniProt P18089); assay: Inhibition of adrenergic alpha2B receptor (unknown origin) by PDSP assay
T6 sequence (P18089 whole entry): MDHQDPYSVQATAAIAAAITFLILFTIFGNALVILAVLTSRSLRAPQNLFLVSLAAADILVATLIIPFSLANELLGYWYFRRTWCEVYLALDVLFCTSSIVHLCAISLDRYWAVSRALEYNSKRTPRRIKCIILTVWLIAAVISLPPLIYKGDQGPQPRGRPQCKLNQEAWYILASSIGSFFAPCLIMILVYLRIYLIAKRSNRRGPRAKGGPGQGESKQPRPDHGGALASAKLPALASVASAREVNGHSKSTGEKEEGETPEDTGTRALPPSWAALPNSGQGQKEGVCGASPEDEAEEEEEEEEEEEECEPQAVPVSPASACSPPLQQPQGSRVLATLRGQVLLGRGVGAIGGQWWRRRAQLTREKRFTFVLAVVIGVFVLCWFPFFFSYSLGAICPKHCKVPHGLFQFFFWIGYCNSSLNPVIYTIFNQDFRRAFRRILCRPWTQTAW

[10] = target: T7, Muscarinic acetylcholine receptor M5 (Homo sapiens, UniProt P08912); assay: Inhibition of muscarinic M5 receptor (unknown origin) by PDSP assay
T7 sequence (P08912 whole entry): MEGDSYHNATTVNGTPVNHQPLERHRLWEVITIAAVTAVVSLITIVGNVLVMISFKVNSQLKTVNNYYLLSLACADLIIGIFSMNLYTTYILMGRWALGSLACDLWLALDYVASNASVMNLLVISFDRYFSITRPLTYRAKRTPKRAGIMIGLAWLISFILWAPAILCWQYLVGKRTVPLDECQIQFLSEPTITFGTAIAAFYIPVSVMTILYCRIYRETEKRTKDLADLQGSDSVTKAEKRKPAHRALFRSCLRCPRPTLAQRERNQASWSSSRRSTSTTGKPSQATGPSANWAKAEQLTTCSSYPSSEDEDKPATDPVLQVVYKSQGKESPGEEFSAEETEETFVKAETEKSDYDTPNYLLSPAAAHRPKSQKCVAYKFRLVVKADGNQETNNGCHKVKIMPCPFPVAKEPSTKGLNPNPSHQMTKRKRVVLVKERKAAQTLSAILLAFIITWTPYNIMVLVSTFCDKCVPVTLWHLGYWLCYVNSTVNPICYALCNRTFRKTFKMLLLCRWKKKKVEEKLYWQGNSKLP

Compound | pKi [1] | pKi [2] | inhibition [3] | inhibition [4] | pKi (D(1B) dopamine receptor [5]) | inhibition [6] | inhibition (D(1B) dopamine receptor [7]) | pKi (Histamine H1 receptor) | inhibition [8] | pKi (D(3) dopamine receptor) | pKi [9] | pKi [10]
CN(Cc1cccc(F)c1)[C@H]1C2C3CC4C2C(=O)C2C4C3C21 (stereo partly specified) | 5.75 | 5.34 | < 50% | – | – | – | – | – | – | – | – | –
CN(Cc1cccnc1)[C@H]1C2C3CC4C2C(=O)C2C4C3C21 (stereo partly specified) | – | – | < 50% | < 50% | < 5.00 | < 50% | – | – | – | – | – | –
CN(CCc1ccccn1)[C@H]1C2C3CC4C5C3CC2C5C41 (stereo partly specified) | – | – | < 50% | < 50% | – | < 50% | < 50% | – | – | – | – | –
CN(Cc1cccnc1)[C@H]1C2C3CC4C5C3CC2C5C41 (stereo partly specified) | – | – | < 50% | < 50% | – | < 50% | – | – | – | – | – | –
COc1ccc(CN[C@H]2C3C4CC5C6C4CC3C6C52)cc1OC (stereo partly specified) | – | – | < 50% | – | – | < 50% | < 50% | 5.87 | < 50% | – | – | –
c1cc2c(cc1CN[C@H]1C3C4CC5C6C4CC3C6C51)OCO2 (stereo partly specified) | – | – | < 50% | – | < 5.00 | < 50% | – | 5.38 | – | 5.57 | 5.49 | –
c1ccc(CCN[C@H]2C3C4CC5C6C4CC3C6C52)cc1 (stereo partly specified) | 5.67 | 5.70 | < 50% | – | – | – | < 50% | – | – | 5.06 | – | 5.70
CN(Cc1ccccc1)[C@H]1C2C3CC4C2C(=O)C2C4C3C21 (stereo partly specified) | 5.98 | – | – | – | – | – | – | – | – | – | – | 5.70
CN(Cc1ccccc1)[C@H]1C2C3CC4C5C3CC2C5C41 (stereo partly specified) | – | < 5.00 | < 50% | < 50% | – | < 50% | – | – | < 50% | – | – | –
COc1cc(CN[C@H]2C3C4CC5C6C4CC3C6C52)cc(OC)c1OC (stereo partly specified) | – | – | < 50% | – | < 5.00 | < 50% | – | 5.25 | < 50% | 5.98 | 6.18 | –
CN(CCCc1cccc(F)c1)[C@H]1C2C3CC4C5C3CC2C5C41 (stereo partly specified) | – | – | < 50% | – | – | < 50% | – | – | < 50% | < 5.00 | – | –
COc1ccc(CN(C)[C@H]2C3C4CC5C3C(=O)C3C5C4C32)cc1OC (stereo partly specified) | – | – | < 50% | < 50% | < 5.00 | < 50% | – | – | < 50% | – | – | –
COc1cc(CN(C)[C@H]2C3C4CC5C6C4CC3C6C52)cc(OC)c1OC (stereo partly specified) | – | < 5.00 | < 50% | – | – | < 50% | – | – | < 50% | – | – | –
c1ccc(CCN[C@H]2C3C4CC5C6C4CC3C6C52)nc1 (stereo partly specified) | 5.67 | 5.81 | < 50% | – | – | – | < 50% | – | – | – | – | 5.24
CN(CCc1cccc(F)c1)[C@H]1C2C3CC4C2C(=O)C2C4C3C21 (stereo partly specified) | – | – | < 50% | – | – | < 50% | – | < 5.00 | – | – | – | 5.37
C1CCC(CN[C@H]2C3C4CC5C6C4CC3C6C52)CC1 (stereo partly specified) | – | – | < 50% | – | – | < 50% | < 50% | – | – | < 5.00 | 5.60 | 5.52
CN(CC1CCCCC1)[C@H]1C2C3CC4C5C3CC2C5C41 (stereo partly specified) | – | – | < 50% | < 50% | – | < 50% | < 50% | – | < 50% | – | – | –
CN(CCc1ccccc1)[C@H]1C2C3CC4C5C3CC2C5C41 (stereo partly specified) | – | – | < 50% | – | – | < 50% | – | – | < 50% | < 5.00 | 5.89 | –
CN(CCc1ccccn1)[C@H]1C2C3CC4C2C(=O)C2C4C3C21 (stereo partly specified) | – | – | < 50% | < 50% | – | < 50% | – | – | – | – | < 5.00 | –
c1ccc(CN[C@H]2C3C4CC5C6C4CC3C6C52)cc1 (stereo partly specified) | – | 5.46 | < 50% | < 50% | – | < 50% | < 50% | < 5.00 | < 50% | – | – | –
COc1ccc(CN(C)[C@H]2C3C4CC5C6C4CC3C6C52)cc1OC (stereo partly specified) | – | – | < 50% | – | < 5.00 | < 50% | – | – | < 50% | – | – | –
CN(CCc1ccccc1)[C@H]1C2C3CC4C2C(=O)C2C4C3C21 (stereo partly specified) | – | 5.89 | < 50% | – | – | < 50% | – | – | – | – | – | 5.62
CN(Cc1ccc2c(c1)OCO2)[C@H]1C2C3CC4C5C3CC2C5C41 (stereo partly specified) | – | – | < 50% | < 50% | < 5.00 | < 50% | – | – | < 50% | – | – | –
CN(CCCc1cccc(F)c1)[C@H]1C2C3CC4C2C(=O)C2C4C3C21 (stereo partly specified) | 5.89 | – | – | – | – | – | – | – | – | – | – | 5.54
C1C2C3CC4C2C2C1C3[C@H](NCC13C5C6C7C5C1C7C63)C42 (stereo partly specified) | 6.33 | 6.90 | – | – | – | – | < 50% | 5.32 | – | 5.27 | 6.00 | 6.23
